# Test results as given in a melting point compilation (Tetko et al.; mined from patent text by program, amines drawn as free bases though some values may be those of a salt).
row,Structure (SMILES),melting point [°C]
1,COc1cc2c(cc1OC)C(O)=C(c1cc(OCc3ccccc3)ccc1[N+](=O)[O-])C2=O,120
2,Cc1cc2c(cc1N(C)CC(C)C)N=C(c1cccc(-n3ncnc3CO)c1)CC(=O)N2,191
3,O=c1n(CCCN2CC=C(c3c[nH]c4ccccc34)CC2)nc2ccccn12,173
4,O=C1CC(c2cccc(O)c2)=Nc2ccc(N3CCCC3)cc21,364 to 367
5,Cc1cn2nc(-c3ccccc3)nc2cc1NC(=O)c1c(C(=O)N2CCC2)cnn1C,226 to 228
6,Cc1nn(C)c(-c2ccccc2)c1NC1=NCCN1,232 to 234
7,CC(=O)n1ccc(O)n1,191
8,O=C(Nc1nccs1)C1=C(O)c2ccsc2S(=O)(=O)C1,215 to 216
9,C#CC1(COC(C)=O)OC(n2ccc(=O)[nH]c2=O)C(OC(C)=O)C1OC(C)=O (stereo unspecified),160 to 162
10,CC(=O)Nc1ccc(-c2ccc3c(c2)C(C)(C)OC(=O)N3)cc1F,245 to 247
11,CC(=O)c1cc2cc(O)c(Cl)c(Cl)c2s1,199 to 201
12,CS(=O)(=O)CCN1C(=O)CN=C(c2ccccc2)c2cc(Cl)ccc21,135 to 156
13,CC(C)(C)NC(=O)c1cc(F)ccc1N,77 to 78
14,CCCc1cc(C(=O)NC2=NC(=O)CN2C)ccc1OC(C(=O)NS(=O)(=O)c1ccc(C(C)C)cc1)c1ccc2c(c1)OCO2 (stereo unspecified),137 to 139
15,CC(SCCS(=O)(=O)N(C)C)c1ccc2c(c1)OCO2 (stereo unspecified),93 to 94.5
16,COC(=O)N1C(C)=NC(C)=C(C(=O)NCCCN2CCC(C(=O)OC)(c3ccccc3)CC2)C1c1ccc(F)c(F)c1 (stereo unspecified),55 to 57
17,O=c1cc(-c2ccncc2)nc2n1CCCN2,219
18,FC(F)Sc1nnc(-c2cnccn2)s1,113 to 115
19,O=S1(=O)NCN(C2CCCCCC2)c2cc(Cl)c(Cl)cc21,191 to 192
20,COc1cccc(Nc2nc(N)nc3[nH]c4ccccc4c23)c1,225 to 226
21,O=C(C1CCCCC1)N1CC2CC2(c2ccccc2)C1 (stereo unspecified),81 to 82
22,CCCCNC(=O)C(C)n1nnc2ccc(Oc3cc(F)c(C(F)(F)F)c(Cl)c3)cc21 (stereo unspecified),142 to 143
23,Cc1nnc2n1-c1sc(CCC(=O)N3CCOCC3)cc1C(c1ccccc1Cl)=NC2C (stereo unspecified),162 to 163
24,O=c1c2c(c1=O)Nc1cc(Cl)c(Cl)cc1N2,> 360
25,CCNC(=O)OCc1cnc(C)c(OC(=O)NCC)c1,121 to 122
26,CCN(CC)CCOC(=O)C1=C(C)Nc2ccnc(OC(C)C)c2C1c1ccccc1C(F)(F)F (stereo unspecified),198 to 200

row,Structure (SMILES),melting point [°C]
1,CON=C1CN(c2nc3c(cc2F)c(=O)c(C(=O)O)cn3C2CC2)CC12CN(C)C2,225 to 227
2,CN1C(=O)C(C)(Cc2ccccc2)N(C)C(=O)C1=Cc1cccnc1Cl (stereo unspecified),146
3,CC(C)(C(=O)NC(Nc1c(Nc2cccnc2)c(=O)c1=O)C(C)(C)C)c1ccccc1 (stereo unspecified),247 to 248
4,CCN(CC)c1nc(Cl)nc2c(Cl)ncnc12,113 to 114
5,CCCC(=O)OCC(=O)C1(OC(C)=O)CCC2C3CC(C)C4=CC(=O)CCC4(C)C3C(O)CC21C (stereo unspecified),98 to 120
6,CCN1C(c2ccccc2C(=O)c2ccccc2)=N[C@@H]2CCCC[C@H]21 (relative stereo),80 to 83
7,CN(c1ccc(Cl)c2cc(-c3ncc(CO)s3)[nH]c12)S(=O)(=O)c1cccs1,225 to 226
8,CC(C)(CO)NS(=O)(=O)c1cccc(NC(=O)c2cnn3c(C(F)(F)F)cc(-c4ccc(C(F)(F)F)cc4)nc23)c1,227
9,Cc1cc(C)nc(-n2c(C(=O)Nc3ccc4c(c3)nc(C)n4C)cc3cc(F)ccc32)c1,130 to 140
10,COC1CC(C)(OCc2ccccc2)C2COC1O2 (stereo unspecified),45 to 46
11,CCCCCCCCCCCNC(=O)N(C)CC(O)C(O)C(O)C(O)CO (stereo unspecified),109
12,Cn1nc(-c2cccc(N3Cc4cc(C(C)(C)C)ccc4C3=O)c2CO)cc(Nc2ccncn2)c1=O,236 to 238
13,CC(c1nc2ccccc2c(=O)n1-c1ccc(F)cc1)N(Cc1cccnc1)C(=O)Cc1ccc(C(F)(F)F)cc1 (stereo unspecified),167
14,CCOC(=O)c1ccc(NC(=O)C=C(c2ccccc2)c2ccc(Cl)cc2)cc1,173 to 175
15,CCc1cc(-c2ccc(-c3ccnn3C)cc2)ccc1OC,97 to 100
16,Cn1c(C(F)(F)F)ccc(-c2c(F)cc(Cl)c3oc(C(Br)Br)cc23)c1=O,107 to 109
17,C=Cc1cc2cc(OC)ccc2[nH]1,80 to 81
18,COc1ccnc(Cl)c1C#N,168 to 171
19,Cc1c2c(c(-c3ccc4c(c3)OCO4)c3c4c(ccc13)OCO4)CNC2=O,292 to 293
20,CC(C)c1cc(O)cc(C(C)C)c1,51 to 52
21,Fc1cccc(F)c1C1=NC(c2ccc(-c3ccc(OCc4ccc(C(F)(F)F)cc4)cc3)cc2)CO1 (stereo unspecified),166
22,CC(C)SC(C)(C)C(=O)O,51.5 to 52.5
23,Cc1cc(C)cc(NCc2ccc3nc(NC4CCN(CCS(N)(=O)=O)CC4)n(Cc4nc(C)ccc4O)c3c2)c1,142
24,CN(C(=O)OC(C)(C)C)c1cc(Sc2cc(C(C)(C)C)c(O)c(C(C)(C)C)c2)ccc1[N+](=O)[O-],140 to 141
25,O=C(O)COc1ccc(Cl)cc1-c1ccc(S(=O)(=O)N2CCOCC2)c(C(F)(F)F)c1,208 to 209

# Other lines, results leading:
row,melting point [°C],Structure (SMILES)
1,292,O=C(O)c1cnc(-c2nnn[nH]2)c2ccccc12
2,191 to 193,COc1ccc(NC(=O)c2ccc(F)c(F)c2)cc1NS(=O)(=O)CCl
3,166 to 167,Cc1ccn2c(C(=O)NCc3ccccc3)c(C)nc2c1
4,112 to 115,CCCc1c(OCCCCC(C)(C)c2nnn[nH]2)ccc(C(C)=O)c1O
5,166,CC(C)=CCC(C(=O)O)C(=O)N(Nc1ccccc1)c1ccccc1 (stereo unspecified)
6,105,CC(=O)Nc1ccc2c(c1)CCCCC2=O
7,145 to 147,CCSc1ccc(-c2ccncc2)c2c1C(=O)CC(C)C2 (stereo unspecified)
8,90 to 91,OCCC1(c2ccc(Cl)c(Cl)c2)CNCCO1 (stereo unspecified)
9,130 to 132,O=C(N(Cc1ccccc1)Cc1cccs1)C12CC3CC(CC(C3)C1)C2
10,83 to 84,OCCc1ccc(CCO)cc1
11,73 to 74,COc1ccc(CCC(=O)c2cccnc2Oc2ccc(F)cc2)cc1
12,91 to 93,CCN1C[C@@H](O)[C@H](N(C)C(=O)c2ccc(Cl)cc2)C1 (relative stereo)
13,54 to 56,CC(C)N(CCSc1ccc(Cl)cc1)C(=O)Oc1ccccc1
14,248 to 249,COc1ccc(Cc2ccc3[nH]c4cnn(C)c4c(=O)c3c2)cc1
15,114 to 115,CCOC(=O)C1=C(C#N)NC(C)=C(C(=O)OCCOCc2ccccc2)C1c1cccc([N+](=O)[O-])c1 (stereo unspecified)
16,180 to 182,Nc1sc2c(c1C(=O)c1ccc(I)c3ccccc13)CCCC2
17,137 to 139,COc1ccc(C(=O)c2[nH]c3cc(Cl)ccc3c2NC(C)=O)cc1
18,82 to 84,O=C(Nc1ccc(F)cc1F)Oc1ccccc1
19,209 to 212,O=S(=O)(CCO)c1ccc(S(=O)(=O)CCO)cc1
20,194 to 197,CCOC1=CC(=O)CC(c2ccccc2O)C1 (stereo unspecified)
21,95 to 97,O=C(c1ccccn1)c1csc(-c2ccccc2)n1
22,89 to 95,CCCNC(=O)C(C)=Cc1ccc2c(c1)c(Cc1ccc(C(=O)O)cc1OC)cn2C
23,69,CCCCCCOc1ccc(C=[N+]([O-])C(C)(C)C)cc1
24,155 to 157,O=C(NCCCCOc1ccc(-c2ccc(=O)[nH]n2)cc1)c1cccnc1
25,235 to 240,CC(=O)Nc1ccc(C=CC2=NNC(=O)SC2)cc1
